How the values were obtained:
Test in all cases: Bliss interaction score (quartile over a dose matrix) (fitness difference); higher = more antagonism (negative = synergy)
S. aureus Newman = system: S. aureus Newman
How it was run: (§1)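 Fitness is OD595 at stationary-phase entry relative to the plate's robust no-drug mean, capped at 1. Single-drug fitness was inferred from combinations. The Bliss score is observed minus product-expected fitness, summarised by quartiles over technical, biological and donor/recipient replicates.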

B. subtilis 168 = system: B. subtilis 168
How it was run: as §1

S. pneumoniae D39V = system: S. pneumoniae D39V
How it was run: as §1

S. aureus DSM 20231 = system: S. aureus DSM 20231
How it was run: as §1
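Further: first quartile when negative (synergy) and third quartile when positive (antagonism).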

SMILES | Bliss interaction score (S. aureus Newman) | Bliss interaction score (B. subtilis 168) | Bliss interaction score (S. pneumoniae D39V) | Bliss interaction score (S. aureus DSM 20231)
CO/N=C(\C(=O)N[C@@H]1C(=O)N2C(C(=O)O)=C(COC(C)=O)CS[C@H]12)c1csc(N)n1 [Cefotaxime] + O=C(N[C@H](CO)[C@H](O)c1ccc([N+](=O)[O-])cc1)C(Cl)Cl [Chloramphenicol] | -0.0902 | -0.0771 | 0.158 | 0.106
CC(=O)Oc1ccccc1C(=O)O [Acetylsalicylicacid] + CN(C)[C@@H]1C(O)=C(C(N)=O)C(=O)[C@@]2(O)C(O)=C3C(=O)c4c(O)ccc(Cl)c4[C@@](C)(O)[C@H]3C[C@@H]12 [Clortetracycline] | -0.0574 | -0.311 | -0.0497 | -0.101
C[C@H]1c2cccc(O)c2C(=O)C2=C(O)[C@]3(O)C(=O)C(C(N)=O)=C(O)[C@@H](N(C)C)[C@@H]3[C@@H](O)[C@@H]21 [Doxycycline] + CO[C@@]12[C@H](COC(N)=O)C3=C(C(=O)C(C)=C(N)C3=O)N1C[C@@H]1N[C@@H]12 [MitomycinC] | 0.0515 | 0.0704 | -0.0943 | -0.0478
COc1cccc2c1C(=O)c1c(O)c3c(c(O)c1C2=O)C[C@@](O)(C(=O)CO)C[C@@H]3O[C@H]1C[C@H](N)[C@H](O)[C@H](C)O1 [Doxorubicin] + CC(=O)O[C@H]1C[C@@]2(C)[C@@H](C[C@@H](O)[C@H]3[C@@]4(C)CC[C@@H](O)[C@@H](C)[C@@H]4CC[C@@]32C)/C1=C(\CCC=C(C)C)C(=O)O [Fusidic acid] | 0.0367 | 0.0613 | -0.0805 | -0.0285
CC1(C)S[C@@H]2[C@H](NC(=O)Cc3ccccc3)C(=O)N2[C@H]1C(=O)O [PenicillinG] + CN(N=O)C(=O)N[C@@H](C=O)[C@@H](O)[C@H](O)[C@H](O)CO [Streptozotocin] | -0.0606 | 0.0513 | 0.0394 | -0.0545
CC(=O)Oc1ccccc1C(=O)O [Acetylsalicylicacid] + CC1(C)S[C@@H]2[C@H](NC(=O)Cc3ccccc3)C(=O)N2[C@H]1C(=O)O [PenicillinG] | 0.0702 | 0.117 | -0.0595 | 0.101
N#CC(C#N)=NNc1cccc(Cl)c1 [CCCP] + Oc1cc(Cl)ccc1Oc1ccc(Cl)cc1Cl [Triclosan] | -0.021 | 0.0443 | 0.0866 | 0.0338
CN(C)[C@@H]1C(O)=C(C(N)=O)C(=O)[C@@]2(O)C(O)=C3C(=O)c4c(O)ccc(Cl)c4[C@@](C)(O)[C@H]3C[C@@H]12 [Clortetracycline] + C[C@@H]1O[C@@H]1P(=O)(O)O [Fosfomycin] | -0.161 | 0.0913 | 0.0517 | -0.158
CN(C)[C@@H]1C(O)=C(C(N)=O)C(=O)[C@@]2(O)C(O)=C3C(=O)c4c(O)ccc(Cl)c4[C@@](C)(O)[C@H]3C[C@@H]12 [Clortetracycline] + CN1C2=CC=CC=C2N=C3C1=CC=CC3=O [Pyocyanin] | -0.0515 | 0.0851 | -0.0238 | 0.0397
CC(=O)Oc1ccccc1C(=O)O [Acetylsalicylicacid] + C[C@H]1c2cccc(O)c2C(=O)C2=C(O)[C@]3(O)C(=O)C(C(N)=O)=C(O)[C@@H](N(C)C)[C@@H]3[C@@H](O)[C@@H]21 [Doxycycline] | 0.0416 | -0.164 | 0.1 | -0.0455
N#CC(C#N)=NNc1cccc(Cl)c1 [CCCP] + CC[C@H]1OC(=O)[C@H](C)[C@@H](O[C@H]2C[C@@](C)(OC)[C@@H](O)[C@H](C)O2)[C@H](C)[C@@H](O[C@@H]2O[C@H](C)C[C@H](N(C)C)[C@H]2O)[C@](C)(OC)C[C@@H](C)C(=O)[C@H](C)[C@@H](O)[C@]1(C)O [Clarithromycin] | 0.0706 | 0.0363 | -0.0531 | -0.0461
CC(=O)Oc1ccccc1C(=O)O [Acetylsalicylicacid] + CN[C@@H]1[C@H](O[C@H]2[C@H](O[C@H]3[C@H](O)[C@@H](O)[C@H](N=C(N)N)[C@@H](O)[C@@H]3N=C(N)N)O[C@@H](C)[C@]2(O)C=O)O[C@@H](CO)[C@H](O)[C@H]1O [Streptomycin] | 0.0762 | 0.222 | -0.0479 | -0.0889
O=C(O)c1cn(C2CC2)c2cc(N3CCNCC3)c(F)cc2c1=O [Ciprofloxacin] + CC(=O)O[C@H]1C[C@@]2(C)[C@@H](C[C@@H](O)[C@H]3[C@@]4(C)CC[C@@H](O)[C@@H](C)[C@@H]4CC[C@@]32C)/C1=C(\CCC=C(C)C)C(=O)O [Fusidic acid] | 0.0831 | 0.19 | 0.0674 | 0.04
Cc1ncc([N+](=O)[O-])n1CCO [Metronidazole] + CO[C@@]12[C@H](COC(N)=O)C3=C(C(=O)C(C)=C(N)C3=O)N1C[C@@H]1N[C@@H]12 [MitomycinC] | 0.0511 | 0.132 | 0.0827 | 0.0443
N#CC(C#N)=NNc1cccc(Cl)c1 [CCCP] + C[C@@H](O)[C@H]1C(=O)N2C(C(=O)O)=C(SCCNC=N)C[C@H]12 [Imipenem] | 0.0181 | -0.0769 | 0.0923 | 0.0449
CO/N=C(\C(=O)N[C@@H]1C(=O)N2C(C(=O)O)=C(COC(N)=O)CS[C@H]12)c1ccco1 [Cefuroxime] + Oc1cc(Cl)ccc1Oc1ccc(Cl)cc1Cl [Triclosan] | -0.0309 | 0.0538 | 0.0619 | 0.0932
CO/N=C(\C(=O)N[C@@H]1C(=O)N2C(C(=O)O)=C(COC(N)=O)CS[C@H]12)c1ccco1 [Cefuroxime] + CCC[C@@H]1C[C@@H](C(=O)N[C@@H]([C@H]2O[C@H](SC)[C@H](O)[C@@H](O)[C@H]2O)[C@H](C)Cl)N(C)C1 [Clindamycin] | -0.0892 | -0.048 | 0.0539 | -0.156

Source: the supplement of paper PMC10627819
